By EC50 is commonly meant the concentration giving half of the maximal effect. Low values mean higher potency in that assay, high ones lower potency in that assay. In general, solubility (kinetic) refers to solubility judged after dilution from a stock solution rather than from solid.

SMILES strings stand for the structures.

In one data set the target is T1, human NOD2 (Homo sapiens, UniProt Q9HC29).
T1 construct: host or cells: HEK-Blue NOD2 (HEK293-derived)
Briefly: HEK-Blue NOD2 NF-κB SEAP reporter assay. It counts as cell-based. The note with it: HEK-Blue NOD2 cells. The text has this:
(§1) The building blocks and synthesized conjugates were initially assessed for their receptor-specific activities toward NOD2, TLR7 and TLR8 using the commercially available HEK-Blue NOD2, TLR7 and TLR8 reporter cell lines. These cell lines were derived from HEK293 cells by cotransfection of human NOD2/TLR7/TLR8 and an NF-κB-inducible secreted embryonic alkaline phosphatase (SEAP). Activation of NOD2/TLR7/TLR8, and subsequently of NF-κB, leads to the expression and secretion of SEAP, the levels of which can be quantified colorimetrically. […]
(§2) 3.1. Hek-Blue NOD2, TLR7 and TLR8 cells.
(§3) HEK-Blue NOD2, TLR7, and TLR8 cells (Invivogen, San Diego, CA, USA) were cultured according to the manufacturer instructions in Dulbecco’s modified Eagle’s medium (Sigma-Aldrich, St. Louis, MO, USA) supplemented with 10% heat-inactivated fetal bovine serum (Gibco), 2 mM L-glutamine (Sigma-Aldrich), 100 U/mL penicillin (Sigma-Aldrich), 100 µg/mL streptomycin (Sigma-Aldrich), and 100 µg/mL Normocin (Invivogen) for two passages. All subsequent passages of NOD2 and TLR8 cells were cultured in medium additionally supplemented with 100 µg/mL Zeocin and 30 µg/mL Blasticidin (Invivogen) and of TLR7 cells with 100 µg/mL Zeocin and 10 µg/mL Blasticidin. […]
(§4) The tested compounds were dissolved in DMSO and further diluted in culture medium to the desired final concentrations, such that the final DMSO concentration never exceeded 0.1%. […]
(§5) 3.4 NOD2/TLR7/TLR8 NF-kB reporter assay
(§6) HEK-Blue NOD2 cells (25,000 cells/well), TLR7 and TLR8 cells (40,000 cells/well) were seeded in 96-well plates in 100 µL HEK-Blue detection medium (Invivogen, San Diego, CA, USA) and treated with […]
(§7) corresponding vehicle (0.1% DMSO). After 18 h of incubation (37 °C, 5% CO2), secreted embryonic
For orientation: Reporter assays use an easily measured gene product as a stand-in for the process of interest.

The nature of data set [1]: Kinetic solubility in PBS (UHPLC, method of Hoelke et al.). In kind it is physicochemical. The note with it: PBS, 5% DMSO. As for the experimental part: Second, the kinetic solubility of all individual building blocks (compounds 4-7) and conjugates was determined (results are listed in Table 1) in order to highlight how fine-tuning of linker traits can impact this physicochemical property. Kinetic solubility refers to the maximum solubility of a compound when it precipitates from a supersaturated solution, which is metastable and not in equilibrium; it was measured using the method described by Hoelke et al.[34] The length and composition of the linker as well as linkage site are important for activity and physicochemical characteristics of conjugates, which in turn affect their pharmacokinetic profiles. In general, the benzylic COOH was exploited exclusively as the linker attachment site in TLR7 agonist-featuring conjugates, while two potential linkage sites were considered in the structure of NOD2 agonist. […] In conjugates 22-24 and 29, the moieties were connected via the γ-COOH group of the NOD2 agonist. […] It has to be kept in mind that among the polyalkylethers, the structural requirements for aqueous solubility are poised toward the (−OCH2CH2−)n unit while (−OCH2CH2CH2−)n is not beneficial in this respect.[35] […]
suspension was filtered through a syringe filter (0.45 μm), diluted 2.25-fold with acetonitrile, and analyzed with UHPLC. The solubility was quantified with a five-point calibration curve from 500 to 0.8 μM generated by dilution of the original DMSO solution into a 1:1 mixture of acetonitrile and PBS. The content of DMSO in all solutions was fixed to 5% by adding the respective amounts of DMSO. The column used was Waters Acquity UPLC BEH C18 (1.7 μm, 2.1 × 50 mm). The eluent was a mixture of 0.1% TFA in water (A) and acetonitrile (B), with a gradient of (%B): 0−6 min, 5−95%; 6−8 min, 95%; 8−8.5 min, 95−5%. The column was thermostated at 40 °C.
3.1. Hek-Blue NOD2, TLR7 and TLR8 cells. […]
(BioTek Synergy microplate reader; Winooski, VT, USA). EC50 values were calculated using Prism

The next data set concerns the target T2, human TLR7 (Homo sapiens, UniProt Q9NYK1).
T2 construct: host or cells: HEK-Blue TLR7 (HEK293-derived)
T2 sequence (Q9NYK1 27-1049): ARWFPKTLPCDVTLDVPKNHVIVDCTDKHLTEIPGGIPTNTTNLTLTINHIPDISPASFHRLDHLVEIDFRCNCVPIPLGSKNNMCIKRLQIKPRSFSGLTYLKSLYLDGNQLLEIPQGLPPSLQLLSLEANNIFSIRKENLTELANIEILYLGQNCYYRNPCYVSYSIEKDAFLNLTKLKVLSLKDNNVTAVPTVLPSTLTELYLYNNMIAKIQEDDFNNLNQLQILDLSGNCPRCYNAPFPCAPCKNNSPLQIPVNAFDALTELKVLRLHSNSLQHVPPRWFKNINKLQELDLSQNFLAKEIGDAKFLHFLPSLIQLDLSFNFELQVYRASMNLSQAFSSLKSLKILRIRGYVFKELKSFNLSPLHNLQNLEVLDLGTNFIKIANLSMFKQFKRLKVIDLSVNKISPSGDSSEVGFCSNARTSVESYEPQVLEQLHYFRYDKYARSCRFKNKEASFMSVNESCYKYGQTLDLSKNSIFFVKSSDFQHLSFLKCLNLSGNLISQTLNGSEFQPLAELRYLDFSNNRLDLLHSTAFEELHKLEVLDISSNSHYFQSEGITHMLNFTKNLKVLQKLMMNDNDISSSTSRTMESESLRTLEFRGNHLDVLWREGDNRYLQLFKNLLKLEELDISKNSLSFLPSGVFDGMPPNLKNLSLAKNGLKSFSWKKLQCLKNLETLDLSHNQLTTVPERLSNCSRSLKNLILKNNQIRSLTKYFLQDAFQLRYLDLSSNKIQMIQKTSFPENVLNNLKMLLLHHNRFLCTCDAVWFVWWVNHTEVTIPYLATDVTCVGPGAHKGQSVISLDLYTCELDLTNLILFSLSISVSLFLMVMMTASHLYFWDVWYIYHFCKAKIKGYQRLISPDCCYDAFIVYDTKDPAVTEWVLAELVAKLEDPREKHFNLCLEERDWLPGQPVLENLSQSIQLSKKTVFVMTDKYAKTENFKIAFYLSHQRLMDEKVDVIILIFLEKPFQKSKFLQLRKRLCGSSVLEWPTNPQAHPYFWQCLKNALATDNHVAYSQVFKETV
Briefly: HEK-Blue TLR7 NF-κB SEAP reporter assay. In kind it is cell-based. The note with it: HEK-Blue TLR7 cells.
Text: as §1, §2, §3, §4, §5, §6, §7

The mark [2] stands for this setting: 18 h, eight concentrations (1 nM to 10 μM), mean ± SEM.
[3] abbreviates: aqueous with cosolvent or surfactant or cyclodextrin, kinetic from dmso stock.

T1 sequence (Q9HC29 whole entry): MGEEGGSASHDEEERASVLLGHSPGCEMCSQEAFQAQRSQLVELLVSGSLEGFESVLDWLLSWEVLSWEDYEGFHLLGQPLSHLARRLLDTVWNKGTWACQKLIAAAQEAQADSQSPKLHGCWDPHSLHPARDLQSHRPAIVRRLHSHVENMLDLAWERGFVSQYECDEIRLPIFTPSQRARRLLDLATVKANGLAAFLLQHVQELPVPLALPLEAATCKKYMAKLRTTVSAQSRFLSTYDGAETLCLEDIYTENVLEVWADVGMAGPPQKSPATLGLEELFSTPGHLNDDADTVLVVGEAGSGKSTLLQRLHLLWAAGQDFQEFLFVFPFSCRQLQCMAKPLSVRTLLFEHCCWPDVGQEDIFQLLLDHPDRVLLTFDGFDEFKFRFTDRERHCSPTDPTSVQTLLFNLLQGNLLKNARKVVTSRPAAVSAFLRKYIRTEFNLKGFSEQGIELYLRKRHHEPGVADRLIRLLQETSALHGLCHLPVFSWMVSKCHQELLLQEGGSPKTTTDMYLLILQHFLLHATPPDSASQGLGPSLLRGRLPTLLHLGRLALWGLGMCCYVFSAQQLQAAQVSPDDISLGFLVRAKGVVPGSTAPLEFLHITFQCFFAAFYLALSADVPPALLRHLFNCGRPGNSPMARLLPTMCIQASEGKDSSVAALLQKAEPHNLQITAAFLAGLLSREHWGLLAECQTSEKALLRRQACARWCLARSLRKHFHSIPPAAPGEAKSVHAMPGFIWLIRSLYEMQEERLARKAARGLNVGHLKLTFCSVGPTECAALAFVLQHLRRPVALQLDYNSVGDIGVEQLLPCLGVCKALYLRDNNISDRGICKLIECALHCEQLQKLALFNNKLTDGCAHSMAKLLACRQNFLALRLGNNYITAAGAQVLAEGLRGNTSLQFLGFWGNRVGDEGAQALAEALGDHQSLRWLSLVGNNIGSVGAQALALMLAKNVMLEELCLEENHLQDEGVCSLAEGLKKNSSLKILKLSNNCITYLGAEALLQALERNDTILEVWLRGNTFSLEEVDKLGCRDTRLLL

With `CCOCc1nc2c(NC(=O)CCCCCNC(=O)CC[C@@H](NC(=O)[C@@H](NC(=O)CNC(=O)/C=C/c3ccc(O)c(OC)c3)C(C)C)C(=O)OCC)nc3ccccc3c2n1CC(C)(C)O` [compound 32], the values for the EC50 on human NOD2, on human NOD2 (setting [2]) and at human TLR7 (setting [2]) were 7.2 µM, 7.23 ± 0.499 µM and above 10 µM, respectively. Besides, the solubility (kinetic) turned out to be 437.3 µM in data set [1] and 437 µM in data set [1] (setting [3]). At human TLR7 (up to 10 μM), the “TLR7 agonistic activity (in words)” value is “devoid of TLR7 agonistic activity”.
As for `CCOCc1nc2c(N)nc3ccccc3c2n1CC(C)(C)NC(=O)CCCCCNC(=O)CC[C@@H](NC(=O)[C@@H](NC(=O)CNC(=O)/C=C/c1ccc(O)c(OC)c1)C(C)C)C(=O)OCC` [compound 33], the results for the EC50 on human NOD2 (setting [2]), on human TLR7 and on human TLR7 (setting [2]) were above 10 µM, 5.3 µM and 5.29 ± 1.5 µM, respectively. Besides, the solubility (kinetic) was 404.1 µM in data set [1] and 404 µM in data set [1] (setting [3]).
